Earlier results on 1 molecule are cited in US6410588B1, “Use of cannabinoids as anti-inflammatory agents” (priority 1998, dated 2002).

One data set has as its system nitric oxide (NO). The conditions noted are these: macrophages activated by LPS and IFNγ; cited from earlier work.
A further data set relates to IFNγ. The conditions noted are these: cited from earlier work.
Data set [1] relates to antibody formation against sheep red blood cells. The settings on record: studies in mice; cited from earlier work.

With `CCCCCc1cc(O)c2c(c1)OC(C)(C)C1CCC(C)=CC21` (stereo not shown) [THC, Delta-9-tetrahydrocannabinoid, reference compound], the “nitric oxide (NO) production” value with nitric oxide (NO) was “inhibited”. In addition, in the data set with IFNγ (high concentrations (5-24 μg/ml)), the IFNγ synthesis entry is listed as “completely blocked IFNγ synthesis”. Further, in the data set with IFNγ (low concentrations), the IFNγ production result is on record as “increase IFNγ production”. In addition, in data set [1], the “antibody formation against sheep red blood cells” value is “suppresses antibody formation”.
